# Assay results taken from US20250333424A1, “ANTIVIRAL COMPOUNDS” (Gilead Sciences, Inc., priority 2024, published 2025).
# System: monocytic THP1 cells infected with HIV VSV-G pseudotyped GFP-NEF reporter virus
# Test: cells
# Assay type: cell-based
# Conditions: Human immunodeficiency virus 1, THP-1, 24 h
row,Compound,EC50 [nM]
1,"Cc1cc([C@H]2C[C@@H]2C#N)cc(C)c1Oc1nc(NC23CC(C#N)(C2)C3)nc2nn(C)cc12 (single isomer, unassigned) [Compound 133]",511
2,"Cc1cc(/C=C/C#N)cc(C)c1Oc1nc(NC23CC(C#N)(C2)C3)nc2[nH]nc(Cl)c12 [Compound 94, (E)-3-((3-chloro-4-(4-(2-cyanovinyl)-2,6-dimethylphenoxy)-1H-pyrazolo[3,4-d]pyrimidin-6-yl)amino)bicyclo[1.1.1]pentane-1-carbonitrile]",72.5
3,"Cc1cc(/C=C/C#N)cc(C)c1Oc1nc(NC23CC(C#N)(C2)C3)nc2nc(C)n(C(F)F)c12 [Compound 13, (E)-3-((6-(4-(2-cyanovinyl)-2,6-dimethylphenoxy)-7-(difluoromethyl)-8-methyl-7H-purin-2-yl)amino)bicyclo[1.1.1]pentane-1-carbonitrile]",11.7
4,"Cc1cc(/C=C/C#N)cc(C)c1Oc1nc(NC23CC(C#N)(C2)C3)nc2c1C(O)NC2=O (centres unmarked) [Compound 286, (E)-3-((4-(4-(2-cyanovinyl)-2,6-dimethylphenoxy)-5-hydroxy-7-oxo-6,7-dihydro-5H-pyrrolo[3,4-d]pyrimidin-2-yl)amino)bicyclo[1.1.1]pentane-1-carbonitrile]",72.4
5,"Cc1cc(/C=C/C#N)cc(C)c1Oc1nc(NC23CC(C#N)(C2)C3)nc2nn(C)c(C(F)F)c12 [Compound 92, (E)-3-((4-(4-(2-cyanovinyl)-2,6-dimethylphenoxy)-3-(difluoromethyl)-2-methyl-2H-pyrazolo[3,4-d]pyrimidin-6-yl)amino)bicyclo[1.1.1]pentane-1-carbonitrile]",26.3
6,"Cc1cc(/C=C/C#N)cc(C)c1Oc1nc(NC23CC(C#N)(C2)C3)nc2nn(CC#N)cc12 [Compound 304, (E)-3-((2-(cyanomethyl)-4-(4-(2-cyanovinyl)-2,6-dimethylphenoxy)-2H-pyrazolo[3,4-d]pyrimidin-6-yl)amino)bicyclo[1.1.1]pentane-1-carbonitrile]",107
7,"Cc1cc(/C=C/C#N)cc(C)c1Oc1nc(NC23CC(C#N)(C2)C3)nc2c(=O)n(C)[nH]c12 [Compound 290, (E)-3-((7-(4-(2-cyanovinyl)-2,6-dimethylphenoxy)-2-methyl-3-oxo-2,3-dihydro-1H-pyrazolo[4,3-d]pyrimidin-5-yl)amino)bicyclo[1.1.1]pentane-1-carbonitrile]",387
8,"Cc1cc(/C=C/C#N)cc(C)c1Oc1nc(NC23CC(C#N)(C2)C3)nc2c1C(C)N(c1cnn3c1CCC3)C2=O (centres unmarked) [Example 225, (E)-3-((4-(4-(2-cyanovinyl)-2,6-dimethylphenoxy)-6-(5,6-dihydro-4H-pyrrolo[1,2-b]pyrazol-3-yl)-5-methyl-7-oxo-6,7-dihydro-5H-pyrrolo[3,4-d]pyrimidin-2-yl)amino)bicyclo[1.1.1]pentane-1-carbonitrile]",51.8
9,"Cc1cc(/C=C/C#N)cc(C)c1Oc1nc(NC23CC(C#N)(C2)C3)nc2nc(C(C)O)n(C(F)F)c12 (centres unmarked) [Compound 179, (E)-3-((6-(4-(2-cyanovinyl)-2,6-dimethylphenoxy)-7-(difluoromethyl)-8-(1-hydroxyethyl)-7H-purin-2-yl)amino)bicyclo[1.1.1]pentane-1-carbonitrile]",18.1
10,"Cc1cc(/C=C/C#N)cc(C)c1Oc1nc(NC23CC(C#N)(C2)C3)nc2nc(C3CCOCC3)[nH]c12 [Compound 52, (E)-3-((6-(4-(2-cyanovinyl)-2,6-dimethylphenoxy)-8-(tetrahydro-2H-pyran-4-yl)-7H-purin-2-yl)amino)bicyclo[1.1.1]pentane-1-carbonitrile]",137
11,"Cc1cc(/C=C/C#N)cc(C)c1Oc1nc(NC23CC(C#N)(C2)C3)nc2nn(C)c(Cl)c12 (single isomer, unassigned) [Compound 95, (E)-3-((3-chloro-4-(4-(2-cyanovinyl)-2,6-dimethylphenoxy)-1-methyl-11H-pyrazolo[3,4-d]pyrimidin-6-yl)amino)bicyclo[1.1.1]pentane-1-carbonitrile]",30.6
12,"Cc1cc(/C=C/C#N)cc(C)c1Oc1nc(NC23CC(C#N)(C2)C3)nc2nc3n(c12)C[C@@H](F)CO3 (single isomer, unassigned) [Compound 191]",51.8
13,"Cc1cc(/C=C/C#N)cc(C)c1Oc1nc(NC23CC(C#N)(C2)C3)nc2nc(C3CCOCC3)n(C(F)F)c12 [Compound 176, (E)-3-((6-(4-(2-cyanovinyl)-2,6-dimethylphenoxy)-7-(difluoromethyl)-8-(tetrahydro-2H-pyran-4-yl)-7H-purin-2-yl)amino)bicyclo[1.1.1]pentane-1-carbonitrile]",45
14,"Cc1cc(/C=C/C#N)cc(C)c1Oc1nc(NC23CC(C#N)(C2)C3)nc2c1[C@H](C)N(c1cn[nH]c1)C2=O [Example 228, (S,E)-3-((4-(4-(2-cyanovinyl)-2,6-dimethylphenoxy)-5-methyl-7-oxo-6-(1H-pyrazol-4-yl)-6,7-dihydro-5H-pyrrolo[3,4-d]pyrimidin-2-yl)amino)bicyclo[1.1.1]pentane-1-carbonitrile]",72
15,"Cc1cc(/C=C/C#N)cc(C)c1Oc1nc(NC23CC(C#N)(C2)C3)nc2c1CNC2=O [Compound 153, (E)-3-((4-(4-(2-cyanovinyl)-2,6-dimethylphenoxy)-7-oxo-6,7-dihydro-5H-pyrrolo[3,4-d]pyrimidin-2-yl)amino)bicyclo[1.1.1]pentane-1-carbonitrile]",27.5
16,"Cc1cc(/C=C/C#N)cc(Cl)c1Oc1nc(NC23CC(C#N)(C2)C3)nc2nn(C)cc12 [Compound 6, (E)-3-((4-(2-chloro-4-(2-cyanovinyl)-6-methylphenoxy)-2-methyl-2H-pyrazolo[3,4-d]pyrimidin-6-yl)amino)bicyclo[1.1.1]pentane-1-carbonitrile]",17.4
17,"Cc1cc(/C=C/C#N)cc(C)c1Oc1nc(NC23CC(C#N)(C2)C3)nc2nn(C3CCOC3)cc12 [Example 233, (R,E)-3-((4-(4-(2-cyanovinyl)-2,6-dimethylphenoxy)-2-(tetrahydrofuran-3-yl)-2H-pyrazolo[3,4-d]pyrimidin-6-yl)amino)bicyclo[1.1.1]pentane-1-carbonitrile]",158
18,"Cc1cc(/C=C/C#N)cc(C)c1Oc1nc(NC23CC(C#N)(C2)C3)nc2c1C1(C)OCC[C@@H](C)N1C2=O (stereo partly drawn) [Compound 272, 3-(((8R)-4-(4-((E)-2-cyanovinyl)-2,6-dimethylphenoxy)-4b,8-dimethyl-10-oxo-4b,7,8,10-tetrahydro-6H-pyrimido[5′,4′:3,4]pyrrolo[2,1-b][1,3]oxazin-2-yl)amino)bicyclo[1.1.1]pentane-1-carbonitrile]",68.3
19,"CCOc1nc2nc(NC34CC(C#N)(C3)C4)nc(Oc3c(C)cc(/C=C/C#N)cc3C)c2n1C [Compound 298, (E)-3-((6-(4-(2-cyanovinyl)-2,6-dimethylphenoxy)-8-ethoxy-7-methyl-7H-purin-2-yl)amino)bicyclo[1.1.1]pentane-1-carbonitrile]",87.3
20,"Cc1cc(/C=C/C#N)cc(C)c1Oc1nc(NC23CC(C#N)(C2)C3)nc2c1[C@H]1OCCCN1C2=O [Compound 280, (R,E)-3-((4-(4-(2-cyanovinyl)-2,6-dimethylphenoxy)-10-oxo-4b,7,8,10-tetrahydro-6H-pyrimido[5′,4′:3,4]pyrrolo[2,1-b][1,3]oxazin-2-yl)amino)bicyclo[1.1.1]pentane-1-carbonitrile]",33.7
21,Cc1cc(/C=C/C#N)cc(C)c1Oc1nc(NC23CC(C#N)(C2)C3)nc2c(C)nn(C)c12 [Compound 121],53.2
22,"C=Cc1n[nH]c2nc(NC34CC(C#N)(C3)C4)nc(Oc3c(C)cc(/C=C/C#N)cc3C)c12 [Compound 105, (E)-3-((4-(4-(2-cyanovinyl)-2,6-dimethylphenoxy)-3-vinyl-1H-pyrazolo[3,4-d]pyrimidin-6-yl)amino)bicyclo[1.1.1]pentane-1-carbonitrile]",182
23,"Cc1cc(/C=C/C#N)cc(C)c1Oc1nc(NC23CC(C#N)(C2)C3)nc2snc(C)c12 [Compound 296, (E)-3-((4-(4-(2-cyanovinyl)-2,6-dimethylphenoxy)-3-methylisothiazolo[5,4-d]pyrimidin-6-yl)amino)bicyclo[1.1.1]pentane-1-carbonitrile]",59.5
24,"CO[C@@H]1COC2(C)c3c(Oc4c(C)cc(/C=C/C#N)cc4C)nc(NC45CC(C#N)(C4)C5)nc3C(=O)N2C1 (single isomer, unassigned) [Example 244]",111
25,"Cc1cc(/C=C/C#N)cc(C)c1Oc1nc(NC23CC(C#N)(C2)C3)nc2c1c(C)nn2CC#N [Compound 100, (E)-3-((1-(cyanomethyl)-4-(4-(2-cyanovinyl)-2,6-dimethylphenoxy)-3-methyl-11H-pyrazolo[3,4-d]pyrimidin-6-yl)amino)bicyclo[1.1.1]pentane-1-carbonitrile]",36.1
26,"Cc1cc(/C=C/C#N)cc(C)c1Oc1nc(NC23CC(C#N)(C2)C3)nc2c1C(C)N(C(C)C)C2=O (centres unmarked) [Example 206, (E)-3-((4-(4-(2-cyanovinyl)-2,6-dimethylphenoxy)-6-isopropyl-5-methyl-7-oxo-6,7-dihydro-5H-pyrrolo[3,4-d]pyrimidin-2-yl)amino)bicyclo[1.1.1]pentane-1-carbonitrile]",280
27,"Cc1cc(/C=C/C#N)cc(C)c1Oc1nc(NC23CC(C#N)(C2)C3)nc2c1nc(C)n2CCC#N [Compound 57, (E)-3-((9-(2-cyanoethyl)-6-(4-(2-cyanovinyl)-2,6-dimethylphenoxy)-8-methyl-9H-purin-2-yl)amino)bicyclo[1.1.1]pentane-1-carbonitrile]",147
28,"Cc1cc(/C=C/C#N)cc(C)c1Oc1nc(NC23CC(C#N)(C2)C3)nc2nc(C)n(CC(F)F)c12 (single isomer, unassigned) [Compound 20, (E)-3-((6-(4-(2-cyanovinyl)-2,6-dimethylphenoxy)-7-(2,2-difluoroethyl)-8-methyl-7H-purin-2-yl)amino)bicyclo[1.1.1]pentane-1-carbonitrile]",25.5
29,"Cc1cc(/C=C/C#N)cc(C)c1Oc1nc(NC23CC(C#N)(C2)C3)nc2[nH]c(C)c(C)c12 [Compound 303, (E)-3-((4-(4-(2-cyanovinyl)-2,6-dimethylphenoxy)-5,6-dimethyl-7H-pyrrolo[2,3-d]pyrimidin-2-yl)amino)bicyclo[1.1.1]pentane-1-carbonitrile]",232
